Experiments:
[1] = target: T1, Bcl-xL-Beclin 1 20-mer complex (Homo sapiens, UniProt Q07817); assay: FP competitive binding assay (disruption of Bcl-xL-20-mer complex); conditions: 50 nM 20-mer, 2 μM Bcl-xL
T1 construct: made in house
Experimental: Figure 1 FP-based HTS for Beclin 1 mimetics (A) Schematic presentation of the Beclin 1 protein and sequences of five synthetic peptides modified from Beclin 1 BH3 peptide. Diagram of human Beclin 1 protein with different domains is shown in the bottom. BH3 domain is necessary and sufficient for interaction with Bcl-2/Bcl-xL. Amino acids in red are the critical residues for the binding. (B) Five fluorescein-labeled Beclin 1 BH3 peptides were tested for their binding ability to Bcl-xL protein in FP assay. Fluorescein-labeled Bak BH3 peptide was used as a positive control. Bcl-xL protein was titrated to a solution of 50 nM peptides. (C) Competitive binding assay with positive controls, ABT-263 and (–)-gossypol ((–)G). […] (D–E) HTS was performed with ~50000 compounds from Prestwick, Microsource, CMLD and Chembridge libraries. The four libraries were divided into two groups and screened separately. Compounds activity (percent of inhibition) of first screen (D) and second screen (E) were shown with Z′ value indicated on top. Plate median + 3SD was used as a threshold to determine the initial hits.
Bcl-xL protein was immobilized on the sensor chip with 10000 RU.
All N′-fluorescein-labeled peptides were purchased from Kansas State University (Manhattan, KS). […] 16mer Bak ([…]) sequence was from published literature. Bcl-xL protein (25 kDa, > 90% pure based on SDS–PAGE) was expressed and purified in Protein Product Group, University of Kansas. FP assays were carried out as described in our previous publication with some modified. […] Then, fluorescein-labeled peptide was added to each well with a final concentration of 50 nM and incubated at room temperature for 30 min. Anisotropy measurements were taken at room temperature using a BioTek Synergy H4 plate reader (Biotek, Winooski, VT) following the protocol recommended by the manufacture. The Kd was estimated by nonlinear regression to a one-site binding model using GraphPad Prism 5.0 (GraphPad, San Diego, CA). […] Compound solvent DMSO only was used as a negative control in the competition assay. After 2 h incubation, the plate was read and polarization was calculated.

DU145 = assay: MTT-based cytotoxicity assay, DU145; conditions: Homo sapiens, DU-145, averages of at least two independent experiments, read-out: Cytotoxicity in different cell lines (IC50, μM) DU145
Source text: (§1) Human prostate cancer cell lines PC-3 and DU145, were purchased from American Type Culture Collection (ATCC) and used within 50 passages. PC-3a is a derivative of PC-3 that is resistant to chemo/radiotherapy, established in our lab and confirmed by genotyping. All cells were maintained in DMEM (Mediatech, Manassas, VA) supplemented with 10% fetal bovine serum (FBS) (Sigma-Aldrich, St. Louis, MO), 1% Glutamine (Mediatech, Manassas, VA), 1% antibiotics (Mediatech, Manassas, VA). Compounds for primary FP-based HTS screening were from Prestwick, Microsource, University of Kansas Center of Excellence in Chemical Methodologies & Library Development (KU CMLD, Lawrence, KS), and Chembridge libraries. Compounds for MTT and SPR validation experiment were purchased from Microsource (Gaylordsville, CT) and Hit2lead Company (San Diego, CA). Acridine analogues, compound 1–6, were from our in-house library (provided by Specialized Chemistry Center, University of Kansas, Lawrence, KS); compound 7–17 were synthesized as described in supplementary information. (–)-Gossypol was isolated from racemic gossypol as we previously described. ABT-263 and DMSO were purchased from Sigma. MTT-based cytotoxicity assay and western blot analysis was carried out according to our previous publications. The primary antibodies used were LC3B (#2775) (Cell signaling Technology, Danvers, MA) and β-actin (A5441) (Sigma).

PC-3a = assay: MTT-based cytotoxicity assay, PC-3a; conditions: Homo sapiens, averages of at least two independent experiments, read-out: Cytotoxicity in different cell lines (IC50, μM) PC-3a
Source text: as §1

PC-3 = assay: MTT-based cytotoxicity assay, PC-3; conditions: Homo sapiens, averages of at least two independent experiments, read-out: Cytotoxicity in different cell lines (IC50, μM) PC-3
Source text: as §1

Bcl-xL protein = target: T2, Bcl-xL protein (Homo sapiens, UniProt Q07817); assay: Surface plasmon resonance assay, immobilized Bcl-xL; assay type: binding; conditions: for binding level to Bcl-xL protein in SPR: 10 μM compound, Bcl-xL immobilized 10000 RU
T2 construct: made in house
T2 sequence (Q07817 whole entry): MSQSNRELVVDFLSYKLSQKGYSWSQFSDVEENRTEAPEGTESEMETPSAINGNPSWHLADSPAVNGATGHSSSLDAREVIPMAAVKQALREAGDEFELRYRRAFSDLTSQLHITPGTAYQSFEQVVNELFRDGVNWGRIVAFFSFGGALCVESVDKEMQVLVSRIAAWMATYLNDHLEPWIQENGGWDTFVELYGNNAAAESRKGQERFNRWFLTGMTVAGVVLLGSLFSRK
Experimental: (§2) The surface plasmon resonance experiments were performed using a Biacore 3000 (GE Healthcare Pittsburgh, PA) equipped with a research-grade CM5 sensor chip. The ligand (Bcl-xL) was immobilized using amine-coupling chemistry. The surfaces of flow cells on a Biacore sensor chip CM5 were activated for 7 min with a 1:1 mixture of 0.1 M NHS (N-hydroxysuccinimide) and 0.1 M EDC (3-(N,N-dimethylamino) propyl-N-ethylcarbodiimide) at a flow rate of 5 μL/min. The ligand (Bcl-xL) at a concentration of 180 μg/mL in 10 mM sodium acetate, pH 4.5, was immobilized at a density of about 10000 RU on flow cell 2; the ligand (SUMO-Bcl-2, 37.5 kDa, > 90% pure based on SDS–PAGE) at a concentration of 44 μg/ml in 10 mM sodium acetate, pH 4.5, was immobilized at a density of 10000 RU on flow cell 3; flow cell 1 was left blank to serve as a reference surface. All the surfaces were blocked with a 7 min injection of 1 M ethanolamine, pH 8.0.
(§3) For kinetic analysis, a concentration series of analyte were injected over the flow cells at a flow rate of 60 μL/min at 20 °C. The complex was allowed to associate and dissociate for 120 and 180 s, respectively. For binding studies, analyte (or test compound) was injected over the two flow cells in duplicate at indicated concentration at a flow rate of 60 μL/min at 20 °C. The running buffer consisted of 20 mM HEPES, 150 mM NaCl, 3 mM EDTA, 1 mM DTT, 0.05% P20, 5% DMSO, pH 7.4. The complex was allowed to associate and dissociate for 120 and 180 s, respectively. The buffer samples containing a range of 4–6% DMSO were injected at the beginning, used for solvent correction. The surfaces were regenerated between binding cycles with a 5 s injection of 5 mM NaOH for compounds and 10 mM Glycine pH 2.5 for 20-mer.
All measurements were taken with flow cell 1 as a reference (i.e. sensorgram depicts “2–1 correction”) and corrected for DMSO bulk differences via the calibration curves. To obtain kinetic rate constants (Ka and Kd), corrected response data were fit to a simple 1:1 interaction model using local fit (includes correction for mass transport limitations) available within Biaevaluation 3.1 software or Scrubber2 software. The equilibrium dissociation constant (KD) was determined by Kd/Ka.

[2] = system: DU145, PC-3a and PC-3 prostate cancer cell lines; assay: MTT-based cytotoxicity assay, all three prostate cancer cell lines; design: species or system Human; conditions: for IC50: Homo sapiens, DU-145, MTT, DU145, PC-3a and PC-3, read-out: cytotoxicity IC50, stated for all three cell lines together; for fold difference in IC50 value, PC-3 and PC-3a versus DU145: higher cytotoxicity in PC-3 and PC-3a than in DU145
Source text: We also tested the cytotoxicity of the 17 compounds in human prostate cancer cell lines by MTT assay (Table 1).
as §1, with “PC-3a is a derivative of PC-3 that is resistant to chemo/radiotherapy, established in our lab and confirmed by genotyping.” left out, “Acridine analogues, compound 1–6, were from our in-house library (provided by Specialized Chemistry Center, University of Kansas, Lawrence, KS); compound 7–17 were synthesized as described in supplementary information.” left out

[3] = target: Bcl-2 protein (SUMO-Bcl-2) (Homo sapiens, UniProt P10415); assay: Surface plasmon resonance assay, immobilized Bcl-2; assay type: binding
Chain of Bcl-2 protein (SUMO-Bcl-2) (P10415 1-211 limits assumed): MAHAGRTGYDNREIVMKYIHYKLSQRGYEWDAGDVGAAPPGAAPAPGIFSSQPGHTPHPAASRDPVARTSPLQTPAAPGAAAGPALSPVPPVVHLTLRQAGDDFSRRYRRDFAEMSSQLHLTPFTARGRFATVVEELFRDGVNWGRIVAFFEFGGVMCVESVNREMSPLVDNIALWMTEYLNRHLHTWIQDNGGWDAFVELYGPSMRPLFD
Experimental: as §2, §3
All measurements were taken with flow cell 1 as a reference (i.e. sensorgram depicts “2–1 correction”) and corrected for DMSO bulk differences via the calibration curves. […] The equilibrium dissociation constant (KD) was determined by Kd/Ka.

[4] = system: PC-3 and PC-3a prostate cancer cells; assay: Western blot of autophagy markers (LC3 conversion, P62); assay type: cell-based, Human
Experimental: Figure 5 Acridine compounds induce autophagy in prostate cancer cells (A) LC3-II conversion in western blot analysis indicated the activity of autophagy. Cells were treated with DMSO or compounds for 24 h, and then lysed and processed for western blot analysis of LC3. (–)G and EBSS were used as positive controls. […] Yellow puncta indicate autophagosome (overlay of red and green fluorescence); red puncta indicate autolysosome (due to green fluorescence quenching at the acidic condition). Cells expressing RFP-GFP-LC3 were treated with compounds A13, A15 or A21 at indicated concentration for 24 h.
Figure 8 Acridine compounds induce autophagy in PC-3 and PC-3a cancer cells LC3-II conversion in western blot analysis indicated the activity of autophagy. Cells were treated with DMSO or compounds for 24 h, and then lysed and processed for western blot analysis of LC3. (–)G and EBSS were used as positive controls.
as §1

T1 sequence (Q07817 whole entry, one chain of several): as the sequence (Q07817 whole entry) above

| binding level to Bcl-xL protein in SPR (Bcl-xL protein; SPR) | SMILES | IC50 (DU145) [µM] | IC50 (PC-3a) [µM] | IC50 (PC-3) [µM] | IC50 [2] [µM] | also measured |
| --- | --- | --- | --- | --- | --- | --- |
| almost no binding | COc1ccc2nc3ccccc3c(-c3ccc([N+](=O)[O-])cc3)c2c1 [Compound 11] | > 100 | > 100 | > 100 | > 100 | – |
| almost no binding | COc1ccc2nc3cc(Cl)ccc3c(-c3ccc([N+](=O)[O-])cc3)c2c1 [Compound 14] | > 100 | > 100 | > 100 | > 100 | melting point: 207 to 211 °C |
| almost no binding | COc1ccc2nc3cc(Cl)ccc3c(-c3ccc(F)cc3)c2c1 [Compound 15] | > 100 | > 100 | > 100 | > 100 | – |

The next lines start with the compound.

| SMILES | binding level to Bcl-xL protein in SPR (Bcl-xL protein; SPR) | IC50 (DU145) [µM] | IC50 (PC-3a) [µM] | IC50 (PC-3) [µM] | IC50 [2] [µM] | also measured |
| --- | --- | --- | --- | --- | --- | --- |
| CC(=O)O.Cc1cc2c(C(C)C)c(O)c(O)c(C=O)c2c(O)c1-c1c(C)cc2c(C(C)C)c(O)c(O)c(C=O)c2c1O [(–)-gossypol] | – | – | – | – | – | competitive displacement of fluorescent 20-mer [1]: capable of freeing out fluorescent 20mer |
| CC1(C)CCC(c2ccc(Cl)cc2)=C(CN2CCN(c3ccc(C(=O)NS(=O)(=O)c4ccc(N[C@H](CCN5CCOCC5)CSc5ccccc5)c(S(=O)(=O)C(F)(F)F)c4)cc3)CC2)C1 [ABT-263] | – | – | – | – | – | competitive displacement of fluorescent 20-mer [1]: capable of freeing out fluorescent 20mer |
| COc1ccc(CCN(C)c2c3ccccc3nc3ccccc23)cc1OC [Compound 1] | almost no binding | 8.15 ± 0.59 | 5.81 ± 1.16 | 6.04 ± 0.68 | – | – |
| COc1ccc(CCNc2ncnc3ccccc23)cc1OC [Compound 3] | almost no binding | > 100 | 82.7 ± 7.99 | – | > 100 | – |
| Nc1c2ccccc2nc2ccccc12 [Compound 5] | – | 2.78 ± 0.79 | 0.74 ± 0.45 | 0.79 ± 0.07 | 0.5 to 5 | fold difference in IC50 value, PC-3 and PC-3a versus DU145 [2]: 3–5 fold |
| O=C(CSc1nc(=O)c2ccccc2[nH]1)c1ccc(O)c(O)c1 [Compound 6] | almost no binding | > 100 | > 100 | > 100 | > 100 | – |
| CCN(CC)CCCCNc1c2ccc(Cl)cc2nc2ccc(OC)cc12 [Compound 7] | higher binding level than original hit A21 | 0.27 ± 0.13 | 0.1 ± 0.05 | 0.11 ± 0.07 | < 0.5 | fold difference in IC50 value, PC-3 and PC-3a versus DU145 [2]: 3–5 fold; kon (Bcl-xL protein; SPR kinetic analysis, 1:1 model, read-out: association rate (Ka) to Bcl-xL): 29600 M⁻¹ s⁻¹; koff (Bcl-xL protein; SPR kinetic analysis, 1:1 model, read-out: dissociation rate (Kd) from Bcl-xL): 0.193 s⁻¹; Kd (Bcl-xL protein; SPR, KD = Kd/Ka, read-out: equilibrium dissociation constant KD to immobilized Bcl-xL): 6.5 µM; selectivity for Bcl-xL protein over Bcl-2 (Bcl-xL protein; from SPR KD values): about 25 fold; kon ([3]; SPR kinetic analysis, 1:1 model, read-out: association rate (Ka) to Bcl-2): 3200 M⁻¹ s⁻¹; koff ([3]; SPR kinetic analysis, 1:1 model, read-out: dissociation rate (Kd) from Bcl-2): 0.51 s⁻¹; Kd ([3]; SPR, KD = Kd/Ka, read-out: equilibrium dissociation constant KD to immobilized Bcl-2): 160 µM; SQSTM1/P62 turnover [4]: degradation of P62; LC3-I to LC3-II conversion ([4]; 24 h treatment): triggered the conversion of LC3-I to LC3-II |
| COc1ccc2nc3cc(Cl)ccc3c(N3CCN(C)CC3)c2c1 [Compound 9] | – | 6.24 ± 1.86 | 3.51 ± 1.15 | 2.93 ± 1.18 | – | melting point: 135 to 138 °C |

— paper PMC5584254, “Identification of novel small molecule Beclin 1 mimetics activating autophagy” (Oncotarget, 2017)
